{
  "source": "paper PMC6114901",
  "about": "“An automated screening method for detecting compounds with goitrogenic activity using transgenic zebrafish embryos” (PLoS ONE, 2018)",
  "system": "zebrafish embryos",
  "assay": "in vivo",
  "conditions": "for LC10: unit not given, in µM; for Slope: mortality concentration-response curve",
  "key": {"[1]": {"conditions": "72 hpf, 15000 µmol/L, replicate 2, 10 embryos"}, "[2]": {"conditions": "72 hpf, 30000 µmol/L, replicate 2, 10 embryos"}, "[3]": {"conditions": "72 hpf, 50000 µmol/L, replicate 1, 10 embryos"}, "[4]": {"conditions": "72 hpf, 100000 µmol/L, replicate 1, 10 embryos"}, "[5]": {"conditions": "96 hpf, 20000 µmol/L, replicate 2, 10 embryos"}, "[6]": {"conditions": "96 hpf, 25000 µmol/L, replicate 2, 10 embryos"}, "[7]": {"conditions": "96 hpf, 30000 µmol/L, replicate 2, 10 embryos"}, "[8]": {"conditions": "96 hpf, 50000 µmol/L, replicate 1, 10 embryos"}, "[9]": {"conditions": "96 hpf, 50000 µmol/L, replicate 2, 10 embryos"}, "[10]": {"conditions": "96 hpf, 100000 µmol/L, replicate 1, 10 embryos"}, "[11]": {"conditions": "120 hpf, 10000 µmol/L, replicate 1, 10 embryos"}, "[12]": {"conditions": "120 hpf, 15000 µmol/L, replicate 2, 10 embryos"}, "[13]": {"conditions": "120 hpf, 20000 µmol/L, replicate 2, 10 embryos"}, "[14]": {"conditions": "120 hpf, 25000 µmol/L, replicate 1, 10 embryos"}, "[15]": {"conditions": "120 hpf, 25000 µmol/L, replicate 2, 10 embryos"}, "[16]": {"conditions": "120 hpf, 30000 µmol/L, replicate 2, 10 embryos"}, "[17]": {"conditions": "120 hpf, 40000 µmol/L, replicate 2, 10 embryos"}, "[18]": {"conditions": "120 hpf, 50000 µmol/L, replicate 1, 10 embryos"}, "[19]": {"conditions": "120 hpf, 50000 µmol/L, replicate 2, 10 embryos"}, "[20]": {"conditions": "120 hpf, 100000 µmol/L, replicate 1, 10 embryos"}},
  "note": "Read-outs that look alike come from different tables or passages of the source.",
  "data": [
    {"smiles": "[K+].[O-][Cl+3]([O-])([O-])[O-]", "note": "[Potassium perchlorate, potassium perchlorate]", "values": [
      {"measurement": "No Surviving", "setting": "72 hpf, 1000 µmol/L, replicate 1, 10 embryos", "value": 10},
      {"measurement": "No Surviving", "setting": "72 hpf, 5000 µmol/L, replicate 1, 10 embryos", "value": 10},
      {"measurement": "No Surviving", "setting": "72 hpf, 10000 µmol/L, replicate 1, 10 embryos", "value": 10},
      {"measurement": "No Surviving", "setting": "[1]", "value": 10},
      {"measurement": "Sublethal effects mtail", "setting": "[1]", "value": 1},
      {"measurement": "No Surviving", "setting": "72 hpf, 20000 µmol/L, replicate 2, 10 embryos", "value": 10},
      {"measurement": "No Surviving", "setting": "72 hpf, 25000 µmol/L, replicate 1, 10 embryos", "value": 10},
      {"measurement": "No Surviving", "setting": "72 hpf, 25000 µmol/L, replicate 2, 10 embryos", "value": 10},
      {"measurement": "Lethal effects k/f", "setting": "[2]", "value": 1},
      {"measurement": "No Surviving", "setting": "[2]", "value": 9},
      {"measurement": "No Surviving", "setting": "72 hpf, 40000 µmol/L, replicate 2, 10 embryos", "value": 10},
      {"measurement": "Lethal effects k/f", "setting": "[3]", "value": 3},
      {"measurement": "No Surviving", "setting": "[3]", "value": 7},
      {"measurement": "Sublethal effects tip", "setting": "[3]", "value": 1},
      {"measurement": "No Surviving", "setting": "72 hpf, 50000 µmol/L, replicate 2, 10 embryos", "value": 10},
      {"measurement": "Lethal effects nohb", "setting": "[4]", "value": 1},
      {"measurement": "No Surviving", "setting": "[4]", "value": 9},
      {"measurement": "Sublethal effects Total Sublethal", "setting": "[4]", "value": 8},
      {"measurement": "Sublethal effects beh", "setting": "[4]", "value": 5},
      {"measurement": "Sublethal effects nomov", "setting": "[4]", "value": 3},
      {"measurement": "No Surviving", "setting": "96 hpf, 1000 µmol/L, replicate 1, 10 embryos", "value": 10},
      {"measurement": "No Surviving", "setting": "96 hpf, 5000 µmol/L, replicate 1, 10 embryos", "value": 10},
      {"measurement": "No Surviving", "setting": "96 hpf, 10000 µmol/L, replicate 1, 10 embryos", "value": 10},
      {"measurement": "No Surviving", "setting": "96 hpf, 15000 µmol/L, replicate 2, 10 embryos", "value": 10},
      {"measurement": "Lethal effects nohb", "setting": "[5]", "value": 3},
      {"measurement": "No Surviving", "setting": "[5]", "value": 7},
      {"measurement": "Sublethal effects Total Sublethal", "setting": "[5]", "value": 1},
      {"measurement": "Sublethal effects mtail", "setting": "[5]", "value": 1},
      {"measurement": "No Surviving", "setting": "96 hpf, 25000 µmol/L, replicate 1, 10 embryos", "value": 10},
      {"measurement": "Lethal effects nohb", "setting": "[6]", "value": 6},
      {"measurement": "No Surviving", "setting": "[6]", "value": 4},
      {"measurement": "Sublethal effects Total Sublethal", "setting": "[6]", "value": 4},
      {"measurement": "Sublethal effects nobc", "setting": "[6]", "value": 4},
      {"measurement": "Lethal effects k/f", "setting": "[7]", "value": 1},
      {"measurement": "Lethal effects nohb", "setting": "[7]", "value": 9},
      {"measurement": "No Surviving", "setting": "96 hpf, 40000 µmol/L, replicate 2, 10 embryos", "value": 10},
      {"measurement": "Lethal effects k/f", "setting": "[8]", "value": 1},
      {"measurement": "Lethal effects nohb", "setting": "[8]", "value": 4},
      {"measurement": "No Surviving", "setting": "[8]", "value": 5},
      {"measurement": "Sublethal effects Total Sublethal", "setting": "[8]", "value": 3},
      {"measurement": "Sublethal effects nobc", "setting": "[8]", "value": 2},
      {"measurement": "Sublethal effects nomov", "setting": "[8]", "value": 1},
      {"measurement": "Sublethal effects tip", "setting": "[8]", "value": 1},
      {"measurement": "Lethal effects k/f", "setting": "[9]", "value": 1},
      {"measurement": "No Surviving", "setting": "[9]", "value": 9},
      {"measurement": "Lethal effects nohb", "setting": "[10]", "value": 10},
      {"measurement": "No Surviving", "setting": "[10]", "value": 0},
      {"measurement": "Sublethal effects nobc", "setting": "[10]", "value": 10},
      {"measurement": "No Surviving", "setting": "120 hpf, 1000 µmol/L, replicate 1, 10 embryos", "value": 10},
      {"measurement": "No Surviving", "setting": "120 hpf, 5000 µmol/L, replicate 1, 10 embryos", "value": 10},
      {"measurement": "Lethal effects nohb", "setting": "[11]", "value": 1},
      {"measurement": "No Surviving", "setting": "[11]", "value": 9},
      {"measurement": "Sublethal effects EdY / EdP", "setting": "[11]", "value": 1},
      {"measurement": "Sublethal effects Total Sublethal", "setting": "[11]", "value": 1},
      {"measurement": "Lethal effects k/f", "setting": "[12]", "value": 1},
      {"measurement": "Lethal effects nohb", "setting": "[12]", "value": 5},
      {"measurement": "No Surviving", "setting": "[12]", "value": 4},
      {"measurement": "Sublethal effects Total Sublethal", "setting": "[12]", "value": 5},
      {"measurement": "Sublethal effects mtail", "setting": "[12]", "value": 5},
      {"measurement": "Lethal effects k/f", "setting": "[13]", "value": 4},
      {"measurement": "No Surviving", "setting": "[13]", "value": 6},
      {"measurement": "Sublethal effects Total Sublethal", "setting": "[13]", "value": 6},
      {"measurement": "Sublethal effects nobc", "setting": "[13]", "value": 6},
      {"measurement": "Lethal effects nohb", "setting": "[14]", "value": 9},
      {"measurement": "No Surviving", "setting": "[14]", "value": 1},
      {"measurement": "Sublethal effects Total Sublethal", "setting": "[14]", "value": 1},
      {"measurement": "Sublethal effects nobc", "setting": "[14]", "value": 1},
      {"measurement": "Lethal effects k/f", "setting": "[15]", "value": 4},
      {"measurement": "Lethal effects nohb", "setting": "[15]", "value": 2},
      {"measurement": "No Surviving", "setting": "[15]", "value": 4},
      {"measurement": "Sublethal effects Total Sublethal", "setting": "[15]", "value": 4},
      {"measurement": "Sublethal effects nobc", "setting": "[15]", "value": 4},
      {"measurement": "Lethal effects k/f", "setting": "[16]", "value": 1},
      {"measurement": "No Surviving", "setting": "[16]", "value": 9},
      {"measurement": "Sublethal effects Total Sublethal", "setting": "[16]", "value": 9},
      {"measurement": "Sublethal effects nobc", "setting": "[16]", "value": 9},
      {"measurement": "Lethal effects k/f", "setting": "[17]", "value": 1},
      {"measurement": "Lethal effects nohb", "setting": "[17]", "value": 2},
      {"measurement": "No Surviving", "setting": "[17]", "value": 7},
      {"measurement": "Sublethal effects Total Sublethal", "setting": "[17]", "value": 7},
      {"measurement": "Sublethal effects nobc", "setting": "[17]", "value": 7},
      {"measurement": "Lethal effects nohb", "setting": "[18]", "value": 4},
      {"measurement": "No Surviving", "setting": "[18]", "value": 6},
      {"measurement": "Sublethal effects Total Sublethal", "setting": "[18]", "value": 6},
      {"measurement": "Sublethal effects nobc", "setting": "[18]", "value": 6},
      {"measurement": "Lethal effects k/f", "setting": "[19]", "value": 4},
      {"measurement": "Lethal effects nohb", "setting": "[19]", "value": 1},
      {"measurement": "No Surviving", "setting": "[19]", "value": 5},
      {"measurement": "Sublethal effects Total Sublethal", "setting": "[19]", "value": 5},
      {"measurement": "Sublethal effects nobc", "setting": "[19]", "value": 5},
      {"measurement": "Lethal effects nohb", "setting": "[20]", "value": 10},
      {"measurement": "No Surviving", "setting": "[20]", "value": 0},
      {"measurement": "LC50", "setting": "mortality after 48 h of exposure, S2 Fig, unit inferred", "value": 50.3, "unit": "mM"},
      {"measurement": "LC10", "setting": "mortality after 48 h of exposure, S2 Fig", "value": 10862},
      {"measurement": "LC50", "setting": "mortality after 72 h of exposure, S2 Fig, unit inferred", "value": 33.1, "unit": "mM"},
      {"measurement": "LC10", "setting": "mortality after 72 h of exposure, S2 Fig", "value": 3232},
      {"measurement": "Slope", "setting": "48 h of exposure", "value": 1.43},
      {"measurement": "Slope", "setting": "72 h of exposure", "value": 0.944},
      {"measurement": "LC50", "setting": "read-out: LC50 (48–120 hpf), mortality, embryos exposed 48–120 hpf", "value": 33.1, "unit": "mM"}
    ]}
  ]
}
